According to US20230037862A1, “SYNTHETIC AGONISTS OF TLR4 RECEPTOR” (UNIVERSITÀ DEGLO STUDI DI MILANO - BICOCCA, priority 2017, published 2023):

Columns and labels:
[1] = tested on: HEK-Blue™ Null2 cells; assay: HEK-Blue Null2 counter-assay (SEAP reporter, no TLR4/MD-2/CD14); assay type: cell-based; details: 16-18 hours
Description: (§1) HEK-Blue™ hTLR4 (FIG. 1A) and HEK-Blue™ Null2 (FIG. 1B) cells were treated with the indicated concentrations of compounds FP11, FP111, and with LPS (100 ng/mL) and incubated for 16-18 hours. Results were normalized to stimulation with LPS alone, and are expressed as mean of percentage ±ES. of at least three independent experiments.
In order to be certain that the agonist effect of compound FP11 be due to the interaction with the TLR4 receptor, the compounds were tested on the HEK-Blue™ Null2 cell line. Said line expresses the same reporter gene of HEK-Blue™ hTLR4 cells (SEAP), but has none of the receptors involved in endotoxin recognition (TLR4, MD-2, CD14).

[2] = biological target: T1, hTLR4 (Homo sapiens, UniProt O00206+Q9Y6Y9); assay: HEK-Blue hTLR4 SEAP reporter assay (NF-κB/AP-1 activation); assay type: cell-based; details: HEK-Blue hTLR4 cells, 16-18 hours
T1 construct: host or cells: HEK-Blue hTLR4 (HEK cells)
Description: as §1
HEK-Blue™ hTLR4 cells were treated with increasing concentrations of compound FP11 and of LPS and incubated for 16-18 hours. Results were normalized to maximum activation of the reporter produced by LPS (FIG. 2A) and to maximum activation of the reporter produced by the compound itself (FIG. 2B). Data were fitted to a sigmoidal four-parameter logistic equation in order to determine IC50 values, and expressed as mean of percentage ±ES of at least three independent experiments.
HEK-Blue™ hTLR4 cells are HEK cells transfected so as to stably express human receptors hTLR4, hMD-2, and hCD14 for endotoxin recognition. In addition, said cells have a reporter gene encoding for a secreted alkaline phosphatase (SEAP) μlaced under the control of specific transcription factors (NF-κB and AP-1) activated by the TLR4 signaling pathway. Therefore, the presence of LPS or of an agonist of TLR4 causes receptor dimerization, activation of the signaling pathway and of transcription factors NF-κB and AP-1, and finally SEAP production and secretion into the culture medium. SEAP levels can be subsequently quantitated by incubating the medium with compound p-nitrophenylphosphate (pNPP) and monitoring with a spectrophotometer the formation of p-nitrophenol chromogenic product at 405 nm.
HEK-Blue™ hTLR4 cells (InvivoGen) were cultured according to manufacturer's instruction. […]
Cells were detached using a cell scraper, counted and seeded in a 96-well multiwell plate at a density of 4×10^4 cells per well. […]
The wells' optical density was determined using a microplate reader set at 405 nm.
The results were normalized with positive control (LPS alone) and expressed as a mean of percentage ±SEM of at least three independent experiments.

T1 sequence (O00206 24-839): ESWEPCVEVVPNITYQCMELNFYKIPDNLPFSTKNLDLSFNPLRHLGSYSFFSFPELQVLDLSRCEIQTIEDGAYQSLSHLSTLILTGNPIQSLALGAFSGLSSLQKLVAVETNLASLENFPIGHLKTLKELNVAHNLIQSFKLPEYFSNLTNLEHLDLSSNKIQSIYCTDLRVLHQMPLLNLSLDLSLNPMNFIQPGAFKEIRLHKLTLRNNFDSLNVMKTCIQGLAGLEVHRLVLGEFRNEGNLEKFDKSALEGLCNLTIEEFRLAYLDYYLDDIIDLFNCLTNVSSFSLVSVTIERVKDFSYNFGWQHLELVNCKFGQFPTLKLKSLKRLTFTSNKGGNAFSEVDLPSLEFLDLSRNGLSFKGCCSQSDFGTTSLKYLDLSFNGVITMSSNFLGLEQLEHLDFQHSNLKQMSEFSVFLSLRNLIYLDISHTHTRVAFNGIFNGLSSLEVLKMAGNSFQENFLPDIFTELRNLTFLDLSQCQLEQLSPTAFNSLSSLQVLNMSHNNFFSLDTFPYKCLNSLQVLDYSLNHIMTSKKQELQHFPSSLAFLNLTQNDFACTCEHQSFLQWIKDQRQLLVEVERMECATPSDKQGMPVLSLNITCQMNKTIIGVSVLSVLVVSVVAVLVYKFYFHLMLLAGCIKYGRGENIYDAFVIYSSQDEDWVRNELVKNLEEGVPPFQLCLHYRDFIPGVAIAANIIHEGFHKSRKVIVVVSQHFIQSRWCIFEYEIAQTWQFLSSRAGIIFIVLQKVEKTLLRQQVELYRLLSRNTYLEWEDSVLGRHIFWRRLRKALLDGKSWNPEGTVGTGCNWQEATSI
T1 sequence (Q9Y6Y9 17-160 limits assumed): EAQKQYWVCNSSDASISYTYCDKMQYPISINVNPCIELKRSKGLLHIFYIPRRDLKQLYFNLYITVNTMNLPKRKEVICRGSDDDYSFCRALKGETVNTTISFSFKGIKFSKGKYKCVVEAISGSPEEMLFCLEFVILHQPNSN

Compound: CCCCCCCCCCCCCC(=O)NC1C(OC(=O)CCCCCCCCCCCCC)[C@H](OC(=O)CCCCCCCCCCCCC)C(CO)O[C@H]1OP(=O)(O)O (stereo partly drawn) [FP11, 1-O-Phosphoryl-2-deoxy-4-O-tetradecanoyl 3-O-tetradecanoyl-2-tetradecanoylamino-α-D-glucopiranoside]
- activation of transcription factors NF-κB and AP-1 in cells without TLR4, MD-2, CD14 [1]: unable to activate transcription factors NF-κB and AP-1
- concentrations at which activation of NF-κB and AP-1 is induced ([2]; SEAP reporter): > 5 µM
- EC50 ([2]; dose-response curve): 12.3 µM
